Our source for the EC50 values is patent US11827639B2, “TDO2 and IDO1 inhibitors” (Genentech, Inc., priority 2017, dated 2023).

One test addresses TDO2 (Homo sapiens, UniProt P48775). Nature of the test: cell-based.
The target of the next test is IDO1 (Homo sapiens, UniProt P14902). Nature of the test: cell-based.
Chain of IDO1 (P14902 whole entry): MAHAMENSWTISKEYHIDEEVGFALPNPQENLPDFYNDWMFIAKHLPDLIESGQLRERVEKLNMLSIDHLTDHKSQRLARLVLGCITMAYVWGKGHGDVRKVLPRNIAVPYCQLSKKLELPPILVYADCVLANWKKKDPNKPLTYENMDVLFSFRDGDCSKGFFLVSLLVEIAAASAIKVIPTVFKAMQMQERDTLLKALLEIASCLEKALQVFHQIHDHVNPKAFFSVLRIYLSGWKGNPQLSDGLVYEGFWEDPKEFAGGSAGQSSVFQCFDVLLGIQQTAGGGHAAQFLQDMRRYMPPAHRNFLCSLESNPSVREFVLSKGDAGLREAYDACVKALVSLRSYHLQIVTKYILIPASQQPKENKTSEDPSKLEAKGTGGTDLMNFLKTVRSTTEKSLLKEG

Chain of TDO2 (P48775 whole entry): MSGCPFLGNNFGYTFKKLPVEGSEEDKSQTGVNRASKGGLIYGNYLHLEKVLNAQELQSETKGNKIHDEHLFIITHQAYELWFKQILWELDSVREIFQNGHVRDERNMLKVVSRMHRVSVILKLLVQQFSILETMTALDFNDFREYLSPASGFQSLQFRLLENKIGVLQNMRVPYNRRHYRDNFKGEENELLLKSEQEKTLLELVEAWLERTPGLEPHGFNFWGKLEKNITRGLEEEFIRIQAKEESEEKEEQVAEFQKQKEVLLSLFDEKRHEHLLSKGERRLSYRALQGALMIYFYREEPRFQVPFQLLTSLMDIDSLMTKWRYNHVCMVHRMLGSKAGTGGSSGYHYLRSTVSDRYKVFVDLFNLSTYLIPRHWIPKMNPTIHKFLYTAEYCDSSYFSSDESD
Description for IDO1: (§1) The NFK GreenScreen™ (NTRC, Netherlands) uses a specific chemical probe that binds to N-Formylkynurenine (NFK), a product of tryptophan catabolism facilitated by IDO or TDO and causes fluorescence at 510 nm when excited at 410 nm. […] The assay is multiplexed with Cell Titer-Glo® (Promega) to determine if compounds are cytotoxic. […] Cells are counted on a Vi-Cell (Beckman Coulter). SW48 cells are diluted to 1×10^6 cells/ml in assay media. A172 cells are diluted to 0.24×10^6 cells/ml in assay media. […] 5 ul of assay media containing 1.2 mM tryptophan are added to the SW48 cells for a final concentration of 200 uM tryptophan in each well. 5 ul of assay media containing 600 uM tryptophan and 600 ng/ml IFNγ are added to the A172 cells for a final concentration of 100 uM tryptophan and 100 ng/ml IFNγ in each well. The final DMSO concentration is 0.5%. Cell plates are placed at room temperature in a closed TC hood with the blower off to allow cells to settle for approximately 30 min. Plates are then moved to an incubator set at 37° C., 5% CO2 for 24 hours. After the 24 hour compound incubation, 8 ul of NFK green reagent is added to each well with a Multidrop™ Combi dispenser (Thermo Scientific). Plates are sealed and incubated at 37° C., 5% CO2 for 5 hours, then read on a PHERAstar® (BMG labtech). Data are analyzed by normalizing to DMSO and high inhibitor controls. After the plates have been read for NFK green, 25 ul of Cell Titer-Glo® (Promega) are added to each well, incubated for 15 minutes at room temperature, and read on the Envision (Perkin Elmer). Cell Titer-Glo data are analyzed by normalizing to the DMSO controls. Four-parameter curve fitting is used and EC50 data are reported.
Description for TDO2: as §1

As a reminder, the EC50 is the concentration at which the effect is half-maximal. As to `c1ccc2c(c1)-c1cncn1C2C1CCn2nccc2C1` (single isomer, unassigned) [Example 05a], the EC50 on TDO2 was determined as 1.1 µM.

For `c1ccc2c(c1)-c1cncn1C2C1CCn2nccc2C1` (single isomer, unassigned) [Example 05b], at TDO2, the 50% effective concentration (EC50) came out at 1.7 µM.

With `c1ccc2c(c1)-c1cncn1C2C1CCn2nccc2C1` (single isomer, unassigned) [Example 05c], on TDO2, the EC50 worked out at 24 µM.

At TDO2, `NS(=O)(=O)c1cccc(C2c3ccccc3-c3cncn32)c1` (single isomer, unassigned) [Example 07a] returned an EC50 of 7.2 µM. Compared with the last molecule, the EC50 is about 3.3-fold lower.

On to `NS(=O)(=O)c1cccc(C2c3ccccc3-c3cncn32)c1` (single isomer, unassigned) [Example 07b], for which the EC50 came to 0.79 µM on TDO2 and 6.5 µM at IDO1.

Take `OCc1cc(F)cc(C2c3ccccc3-c3cncn32)c1` (single isomer, unassigned) [Example 09a]: the EC50 on TDO2 stood at 0.69 µM; on IDO1, 21 µM.

Turning to `OCc1cc(F)cc(C2c3ccccc3-c3cncn32)c1` (single isomer, unassigned) [Example 09b], the EC50 on TDO2 was determined as 0.096 µM; at IDO1 it was 3.3 µM.

`CC(O)c1cccc(C2c3ccccc3-c3cncn32)c1` (single isomer, unassigned) [Example 10b] came in with an EC50 at TDO2 of 5.7 µM.

Consider `CC(O)c1cccc(C2c3ccccc3-c3cncn32)c1` (single isomer, unassigned) [Example 10c], for which the EC50 on TDO2 stood at 0.59 µM; at IDO1, 22 µM.

In turn, `CC(O)c1cccc(C2c3ccccc3-c3cncn32)c1` (single isomer, unassigned) [Example 10d] had an EC50 at TDO2 of 5 µM.

Consider `NC(=O)C1CCC(C2c3ccccc3-c3cncn32)CC1` (single isomer, unassigned) [Example 60b], for which the EC50 turned out to be 0.27 µM at TDO2 and 1.5 µM at IDO1.

For the molecule `NC(=O)C1CCC(C2c3ccccc3-c3cncn32)CC1` (single isomer, unassigned) [Example 60c], at IDO1, the EC50 came out at 6.4 µM.

In the case of `NC(=O)C1CCC(C2c3ccccc3-c3cncn32)CC1` (single isomer, unassigned) [Example 60d], the figures for the EC50 on TDO2 and at IDO1 were 10 µM and 17 µM, respectively.

Regarding `CS(=O)(=O)N1CC2(CC(C3c4ccccc4-c4cncn43)C2)C1` (single isomer, unassigned) [Example 72a], the 50% effective concentration (EC50) at TDO2 turned out to be 0.73 µM; at IDO1, 3 µM.

In turn, `CS(=O)(=O)N1CC2(CC(C3c4ccccc4-c4cncn43)C2)C1` (single isomer, unassigned) [Example 72b] showed a 50% effective concentration (EC50) on TDO2 of 17 µM. In other words, the double-digit micromolar range.

For the molecule `NS(=O)(=O)N1CCC(C2c3ccc(F)cc3-c3cncn32)CC1` (single isomer, unassigned) [Example 74b], the EC50 was determined as 0.064 µM at TDO2 and 4.8 µM on IDO1.

For the molecule `CS(=O)(=O)N1CC2(CCC(C3c4ccccc4-c4cncn43)CC2)C1` (single isomer, unassigned) [Example 78a], the concentration for a half-maximal effect (EC50) at TDO2 turned out to be 10 µM; on IDO1 it was 18 µM.

With `CS(=O)(=O)N1CC2(CCC(C3c4ccccc4-c4cncn43)CC2)C1` (single isomer, unassigned) [Example 78b], the values for the EC50 on TDO2 and at IDO1 were 2.5 µM and 1.4 µM, respectively.

With `Cn1cc(C2c3ccccc3-c3cncn32)cn1` (single isomer, unassigned) [Example 79a], on TDO2, the EC50 amounted to 10 µM.

Regarding `Cn1cc(C2c3ccccc3-c3cncn32)cn1` (single isomer, unassigned) [Example 79b], the EC50 at TDO2 was 0.53 µM; on IDO1 it was 8.5 µM.

Regarding `CS(=O)(=O)C1CCC(C2c3ccccc3-c3cncn32)CC1` (single isomer, unassigned) [Example 83a], it took 22 µM to reach a half-maximal effect at TDO2 (EC50).

For the molecule `CS(=O)(=O)C1CCC(C2c3ccccc3-c3cncn32)CC1` (single isomer, unassigned) [Example 83b], the EC50 amounted to 0.77 µM on TDO2 and 2.3 µM at IDO1.

With `Cn1cc(C2c3ccccc3-c3cncn32)ccc1=O` (single isomer, unassigned) [Example 84a], the EC50 at TDO2 was 7.1 µM.

As for `Cn1cc(C2c3ccccc3-c3cncn32)ccc1=O` (single isomer, unassigned) [Example 84b], the EC50 came out at 0.36 µM at TDO2 and 12 µM at IDO1.

In turn, `OCc1cccc([C@@H]2c3ccccc3-c3cncn32)c1` [Example 01a, (R)-(3-(5H-imidazo[5,1-a]isoindol-5-yl)phenyl)methanol] returned an EC50 on TDO2 of 11 µM.

In the case of `OCc1cccc([C@H]2c3ccccc3-c3cncn32)c1` [Example 01b, (S)-(3-(5H-imidazo[5,1-a]isoindol-5-yl)phenyl)methanol], the EC50 turned out to be 0.31 µM on TDO2 and 8.5 µM on IDO1.

Turning to `OCc1cccc(C2c3ccccc3-c3cncn32)n1` (stereo not shown) [Example 03, (6-(5H-imidazo[5,1-a]isoindol-5-yl)pyridin-2-yl)methanol], on TDO2, the response was half-maximal at 13 µM (EC50).

Take `C1=C(C2c3ccccc3-c3cncn32)CCn2cccc21` (stereo not shown) [Example 04, 5-(5,6-dihydroindolizin-7-yl)-5H-imidazo[5,1-a]isoindole]: the EC50 at TDO2 amounted to 2.3 µM; on IDO1 it was 12 µM.

`OCc1ccc(F)c(C2c3ccccc3-c3cncn32)c1` (stereo not shown) [Example 08, (4-fluoro-3-(5H-imidazo[5,1-a]isoindol-5-yl)phenyl)methanol] gave a half-maximal effective concentration (EC50) at TDO2 of 1.5 µM.

Consider `C[C@H](O)c1cccc([C@H]2c3ccccc3-c3cncn32)c1` [Example 10a, (S)-1-(3-((S)-5H-imidazo[5,1-a]isoindol-5-yl)phenyl)ethan-1-ol], for which the EC50 came out at 0.32 µM on TDO2 and 5 µM on IDO1.

`NC(=O)c1cccc(C2c3ccccc3-c3cncn32)c1` (stereo not shown) [Example 11, 3-(5H-imidazo[5,1-a]isoindol-5-yl)benzamide] yielded an EC50 on TDO2 of 0.65 µM.

For the molecule `CNS(=O)(=O)c1cccc(C2c3ccccc3-c3cncn32)c1` (stereo not shown) [Example 12, 3-(5H-imidazo[5,1-a]isoindol-5-yl)-N-methylbenzenesulfonamide], the EC50 turned out to be 1.8 µM on TDO2 and 11 µM on IDO1.

For `c1ccc2c(c1)-c1cncn1C2C1CCOCC1` (stereo not shown) [Example 14, 5-(tetrahydro-2H-pyran-4-yl)-5H-imidazo[5,1-a]isoindole], the EC50 at TDO2 stood at 0.81 µM; at IDO1, 15 µM.

In the case of `CS(=O)(=O)N1CCC(C2c3ccccc3-c3cncn32)CC1` (stereo not shown) [Example 16, 5-(1-(methylsulfonyl)piperidin-4-yl)-5H-imidazo[5,1-a]isoindole], the EC50 at TDO2 was 0.15 µM; at IDO1, 0.93 µM.

In the case of `N#Cc1cccc(C2c3ccccc3-c3cncn32)c1` (stereo not shown) [Example 17, 3-(5H-imidazo[5,1-a]isoindol-5-yl)benzonitrile], the EC50 at TDO2 was 2 µM; at IDO1, 16 µM.

In the case of `O=C(C1CC1)N1CCC(C2c3ccccc3-c3cncn32)CC1` (stereo not shown) [Example 18, (4-(5H-imidazo[5,1-a]isoindol-5-yl)piperidin-1-yl)(cyclopropyl)methanone], the EC50 on TDO2 was found to be 9.6 µM; on IDO1 it was 19 µM.

For the molecule `c1ccc2c(c1)-c1cncn1[C@@H]2C1CCCCC1` [Example 19a], the figures for the 50% effective concentration (EC50) at TDO2 and at IDO1 were 17 µM and 10 µM, respectively.

Turning to `Cc1cccc(C2c3ccccc3-c3cncn32)c1` (stereo not shown) [Example 21, 5-(m-tolyl)-5H-imidazo[5,1-a]isoindole], the results for the EC50 at TDO2 and at IDO1 were 0.36 µM and 9.7 µM, respectively.

`c1ccc2c(c1)-c1cncn1C2CCC1CCCCC1` (stereo not shown) [Example 22, 5-(2-cyclohexylethyl)-5H-imidazo[5,1-a]isoindole]: the EC50 on TDO2 amounted to 2.3 µM.

The molecule `CCS(=O)(=O)N1CC(C2c3ccccc3-c3cncn32)C1` (stereo not shown) [Example 25, 5-(1-(ethylsulfonyl)azetidin-3-yl)-5H-imidazo[5,1-a]isoindole] returned an EC50 at TDO2 of 14 µM.

Consider `c1ccc2c(c1)-c1cncn1C2C1CCC2(CC1)OCCO2` (stereo not shown) [Example 26, 5-(1,4-dioxaspiro[4.5]decan-8-yl)-5H-imidazo[5,1-a]isoindole], for which the 50% effective concentration (EC50) on TDO2 worked out at 3.2 µM; on IDO1, 9.7 µM.

Consider `Fc1cccc(C2c3ccccc3-c3cncn32)c1` (stereo not shown) [Example 30, 5-(3-fluorophenyl)-5H-imidazo[5,1-a]isoindole], for which the results for the EC50 on TDO2 and at IDO1 were 0.34 µM and 5 µM, respectively.

As for `c1ccc2c(c1)-c1cncn1C2C1CCC1` (stereo not shown) [Example 34, 5-cyclobutyl-5H-imidazo[5,1-a]isoindole], the results for the EC50 at TDO2 and at IDO1 were 0.99 µM and 2.4 µM, respectively.

As for `c1cncc(C2c3ccccc3-c3cncn32)c1` (stereo not shown) [Example 37, 5-(pyridin-3-yl)-5H-imidazo[5,1-a]isoindole], the response at TDO2 was half-maximal at 4.1 µM (EC50).

As to `c1ccc2c(c1)-c1cncn1C2C1CC2(COC2)C1` (stereo not shown) [Example 39, 5-(2-oxaspiro[3.3]heptan-6-yl)-5H-imidazo[5,1-a]isoindole], the values for the EC50 at TDO2 and at IDO1 were 0.59 µM and 11 µM, respectively.

In the case of `Fc1cc(Cl)cc(C2c3ccccc3-c3cncn32)c1` (stereo not shown) [Example 40, 5-(3-chloro-5-fluorophenyl)-5H-imidazo[5,1-a]isoindole], the concentration giving a half-maximal response (EC50) on TDO2 amounted to 0.29 µM; on IDO1 it was 3.8 µM.

On to `c1ccc2c(c1)-c1cncn1C2c1ccncc1` (stereo not shown) [Example 41, 5-(pyridin-4-yl)-5H-imidazo[5,1-a]isoindole], for which a half-maximal response on TDO2 (EC50) required 2.5 µM.

In the case of `N#CC1(CC2c3ccccc3-c3cncn32)CC1` (stereo not shown) [Example 48, 1-((5H-imidazo[5,1-a]isoindol-5-yl)methyl)cyclopropane-1-carbonitrile], it took 6.2 µM to reach a half-maximal effect on TDO2 (EC50).

`NC(=O)C1(CC2c3ccccc3-c3cncn32)CC1` (stereo not shown) [Example 54, 1-((5H-imidazo[5,1-a]isoindol-5-yl)methyl)cyclopropane-1-carboxamide] had an EC50 on TDO2 of 5.4 µM.

Consider `CCS(=O)(=O)Nc1cc2n(n1)CCC(C1c3ccccc3-c3cncn31)=C2` (stereo not shown) [Example 68, N-(5-(5H-imidazo[5,1-a]isoindol-5-yl)-6,7-dihydropyrazolo[1,5-a]pyridin-2-yl)ethanesulfonamide], for which, on TDO2, the EC50 was found to be 1.4 µM.

Regarding `c1ccc2c(c1)-c1cncn1C2c1cnn2c1CCC2` (stereo not shown) [Example 87, 5-(5,6-dihydro-4H-pyrrolo[1,2-b]pyrazol-3-yl)-5H-imidazo[5,1-a]isoindole], the 50% effective concentration (EC50) at TDO2 worked out at 2.7 µM.
